# Experimental data from ChEMBL document CHEMBL1201862, “PubChem BioAssay data set” (2004).
# The source made the active and inactive calls.
# Experiments:
# Bcl-2-related protein A1 = target: T1, Bcl-2-related protein A1 (Mus musculus, UniProt Q07440); format: functional;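 note: confirmatory dose–response counterscreen on Bfl-1, used to check hits from a UBC13 polyubiquitin inhibitor campaign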
# T1 sequence (Q07440 whole entry): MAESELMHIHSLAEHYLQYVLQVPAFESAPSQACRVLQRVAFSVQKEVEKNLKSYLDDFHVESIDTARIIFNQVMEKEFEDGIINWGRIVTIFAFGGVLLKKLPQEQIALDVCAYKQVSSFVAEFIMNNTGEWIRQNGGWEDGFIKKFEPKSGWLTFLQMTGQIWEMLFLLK
# [1] = target: T2, Ubiquitin-conjugating enzyme E2 N (Homo sapiens, UniProt P61088); format: functional
# T2 sequence (P61088 whole entry): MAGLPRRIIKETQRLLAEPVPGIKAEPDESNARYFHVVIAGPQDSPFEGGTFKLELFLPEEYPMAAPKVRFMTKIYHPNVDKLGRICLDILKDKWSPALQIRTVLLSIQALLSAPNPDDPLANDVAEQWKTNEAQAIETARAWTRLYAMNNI
# [2] = target: T2, Ubiquitin-conjugating enzyme E2 N; format: functional; remark: listed apart in the source
# [3] = NIH-3T3 fibroblast cytotoxicity, dose response, cytotoxicity control, cell-based, fluorescence, Alamar Blue, secondary assay (AID 2327); format: functional;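 note: NIH-3T3 mouse fibroblasts cultured with fluconazole at 8 µg/mL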
# [4] = fluconazole-exposed Candida albicans growth modulators – fluorescence, retest, confirmation (AID 2467); format: functional, cell-based
# [5] = viability of PTEN-deleted HCT116 cells – cell-based, HCT116 PTEN knockout, dose response (AID 1047); format: functional;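 note: HCT116 colon tumor cells with PTEN knocked out; cells exposed to compound for 60 hours before readout; potency for loss of cell viability measured by luminescence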
# [6] = viability of HCT116 lacking mutant beta-catenin – cell-based, human colon tumor, dose response (AID 1045); format: functional;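 note: HCT116 colon tumor cells with beta catenin knocked out; cells exposed to compound for 60 hours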
# [7] = THP-1 cell cytotoxicity, dose response, cytotoxicity control for non-replicating M. tuberculosis project (AID 489025); format: functional
# [8] = HepG2 cell cytotoxicity, dose response, cytotoxicity control for non-replicating M. tuberculosis project (AID 489018); format: functional; conditions: Mycobacterium tuberculosis
# [9] = Vero E6 cell cytotoxicity, dose response, cytotoxicity control for non-replicating M. tuberculosis project, secondary assay (AID 492998); format: functional, VeroE6; conditions: Vero C1008
# [10] = target: FAD-linked sulfhydryl oxidase ALR (Homo sapiens, UniProt P55789); assay: ALR-catalysed DTT oxidation blockers – biochemical, H2O2 detection, luminescence, cherry-pick, dose response (AID 493248)
# Chain of FAD-linked sulfhydryl oxidase ALR (P55789 whole entry): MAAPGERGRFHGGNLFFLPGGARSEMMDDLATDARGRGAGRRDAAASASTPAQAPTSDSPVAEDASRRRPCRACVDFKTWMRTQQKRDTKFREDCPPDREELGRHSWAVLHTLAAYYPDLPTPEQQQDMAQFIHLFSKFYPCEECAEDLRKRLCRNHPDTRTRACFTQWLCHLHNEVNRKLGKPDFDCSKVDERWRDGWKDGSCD
# [11] = target: T3, Microphthalmia-associated transcription factor (Homo sapiens, UniProt O75030); assay: reducers of TRPM1 reporter luminescence, concentration series – cell-based, SK-MEL-5, cherry-picked, set 3, MITF inhibitor project, dose response (AID 493073); format: functional;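 note: SK-MEL-5 melanoma cells with luciferase driven by the MITF target TRPM1 promoter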
# T3 sequence (O75030 whole entry): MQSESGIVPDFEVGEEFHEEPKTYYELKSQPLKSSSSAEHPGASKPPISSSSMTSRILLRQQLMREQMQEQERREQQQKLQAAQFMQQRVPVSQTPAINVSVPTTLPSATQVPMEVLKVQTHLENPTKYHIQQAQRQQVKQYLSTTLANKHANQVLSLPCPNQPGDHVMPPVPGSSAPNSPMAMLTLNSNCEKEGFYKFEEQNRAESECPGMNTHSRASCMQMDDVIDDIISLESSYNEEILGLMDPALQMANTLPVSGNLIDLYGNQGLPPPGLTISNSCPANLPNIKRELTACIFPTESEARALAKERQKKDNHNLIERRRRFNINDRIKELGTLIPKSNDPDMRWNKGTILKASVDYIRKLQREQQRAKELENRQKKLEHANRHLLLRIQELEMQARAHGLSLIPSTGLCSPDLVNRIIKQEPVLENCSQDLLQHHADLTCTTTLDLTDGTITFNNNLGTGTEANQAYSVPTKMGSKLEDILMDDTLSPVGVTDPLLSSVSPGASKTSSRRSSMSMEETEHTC
# cells = format: functional
# INS1 = assay: INS-1E survival protection against cytokine death – cell-based, luminescence, retest, dose response (AID 449756); format: functional; conditions: Rattus norvegicus;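 note: cell death triggered by IL-1 beta plus TNF-alpha plus IFN-gamma mixture; protective hits raise ATP signal compared with cytokine alone wells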
# A-375 = assay: proliferation inhibition in MITF-low A375 cells – cell-based, cherry-pick samples, set 2, counter-screen for MITF modulator project, dose response (AID 540335); format: functional; conditions: Homo sapiens
# [12] = reduction of Shn3 3'UTR-driven luciferase in osteoblasts – cell-based, Clone20 osteoblasts, firefly luciferase, cherry-picked, dose response (AID 624132); format: functional;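 note: firefly luciferase luminescence from reporter carrying the Shn3 3'UTR in osteoblasts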
# [13] = loss of viability in HepG2 cells – cell-based, CellTiter-Glo, cherry-picked, cytotoxicity control for Shn3 inhibitor project, dose response (AID 624134); format: functional
# [14] = non-specific 3'UTR reporter inhibition in Clone20-Shn3RL – cell-based, Renilla luciferase, cherry-picked, counter-screen for Shn3 inhibitor project, dose response (AID 624133); format: functional
# Paired box protein Pax-8 = Paired box protein Pax-8 (Homo sapiens, UniProt Q06710); assay: PAX8 transcriptional activity inhibition in RMG-I – RMG-I cells, luciferase, cherry-pick, dose response (AID 687027); format: functional, cell-based;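 note: luciferase reporter driven by Pax8 target thyroperoxidase promoter measured by SteadyGlo luminescence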
# Chain of Paired box protein Pax-8 (Q06710 whole entry): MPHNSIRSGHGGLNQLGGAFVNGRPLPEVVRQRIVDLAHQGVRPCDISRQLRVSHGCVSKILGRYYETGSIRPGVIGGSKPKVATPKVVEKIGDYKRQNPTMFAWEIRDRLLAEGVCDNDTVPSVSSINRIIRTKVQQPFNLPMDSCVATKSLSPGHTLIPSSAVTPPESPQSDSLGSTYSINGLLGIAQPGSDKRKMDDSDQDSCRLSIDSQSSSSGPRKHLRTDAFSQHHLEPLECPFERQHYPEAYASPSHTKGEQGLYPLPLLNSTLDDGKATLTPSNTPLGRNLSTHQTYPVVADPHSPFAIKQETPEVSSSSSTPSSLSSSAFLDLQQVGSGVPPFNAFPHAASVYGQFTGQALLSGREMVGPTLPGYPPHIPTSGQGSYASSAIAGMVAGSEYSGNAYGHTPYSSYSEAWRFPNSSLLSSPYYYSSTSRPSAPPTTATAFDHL
# Cytochrome P450 2C19 = Cytochrome P450 2C19 (Homo sapiens, UniProt P33261); assay: Cytochrome panel assay with activity outcomes. Panel member name: p450-cyp2c19 Compounds with AC50 equal or less than 10 uM are considered active; format: functional; conditions: read-out: AC50
# Chain of Cytochrome P450 2C19 (P33261 whole entry): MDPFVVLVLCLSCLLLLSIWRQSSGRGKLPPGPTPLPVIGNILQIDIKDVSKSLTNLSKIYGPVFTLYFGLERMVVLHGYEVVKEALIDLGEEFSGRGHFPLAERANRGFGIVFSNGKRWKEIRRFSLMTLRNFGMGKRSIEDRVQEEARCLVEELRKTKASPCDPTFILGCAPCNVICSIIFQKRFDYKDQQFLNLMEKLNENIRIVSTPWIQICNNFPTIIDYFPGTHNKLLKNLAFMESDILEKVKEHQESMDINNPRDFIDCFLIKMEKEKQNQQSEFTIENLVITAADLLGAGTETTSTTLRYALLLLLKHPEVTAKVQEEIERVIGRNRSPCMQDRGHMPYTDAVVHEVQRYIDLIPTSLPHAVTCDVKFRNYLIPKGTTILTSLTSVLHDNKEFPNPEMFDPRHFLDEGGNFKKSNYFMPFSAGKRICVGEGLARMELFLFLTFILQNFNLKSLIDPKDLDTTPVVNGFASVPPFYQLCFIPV
# Cytochrome P450 1A2 = target: T4, Cytochrome P450 1A2 (Homo sapiens, UniProt P05177);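 note: PubChem cytochrome P450 panel assay, CYP1A2 panel member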
# T4 sequence (P05177 whole entry): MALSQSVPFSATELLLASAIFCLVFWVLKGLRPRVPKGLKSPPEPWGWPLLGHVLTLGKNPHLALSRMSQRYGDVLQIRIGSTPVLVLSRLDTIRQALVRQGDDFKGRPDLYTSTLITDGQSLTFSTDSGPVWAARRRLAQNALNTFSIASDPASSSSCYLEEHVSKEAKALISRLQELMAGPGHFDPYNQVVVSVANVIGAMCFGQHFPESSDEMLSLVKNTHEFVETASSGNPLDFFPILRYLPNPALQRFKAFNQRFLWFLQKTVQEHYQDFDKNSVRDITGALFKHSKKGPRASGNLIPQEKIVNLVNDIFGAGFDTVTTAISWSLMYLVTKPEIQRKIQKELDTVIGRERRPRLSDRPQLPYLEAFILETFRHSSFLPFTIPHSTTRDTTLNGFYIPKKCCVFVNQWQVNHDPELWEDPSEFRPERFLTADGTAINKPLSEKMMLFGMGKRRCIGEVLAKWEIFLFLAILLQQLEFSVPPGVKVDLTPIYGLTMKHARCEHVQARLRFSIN
# Cytochrome P450 3A4 = Cytochrome P450 3A4 (Homo sapiens, UniProt P08684);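 note: CYP3A4 tested as one member of a cytochrome P450 panel screen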
# Chain of Cytochrome P450 3A4 (P08684 whole entry): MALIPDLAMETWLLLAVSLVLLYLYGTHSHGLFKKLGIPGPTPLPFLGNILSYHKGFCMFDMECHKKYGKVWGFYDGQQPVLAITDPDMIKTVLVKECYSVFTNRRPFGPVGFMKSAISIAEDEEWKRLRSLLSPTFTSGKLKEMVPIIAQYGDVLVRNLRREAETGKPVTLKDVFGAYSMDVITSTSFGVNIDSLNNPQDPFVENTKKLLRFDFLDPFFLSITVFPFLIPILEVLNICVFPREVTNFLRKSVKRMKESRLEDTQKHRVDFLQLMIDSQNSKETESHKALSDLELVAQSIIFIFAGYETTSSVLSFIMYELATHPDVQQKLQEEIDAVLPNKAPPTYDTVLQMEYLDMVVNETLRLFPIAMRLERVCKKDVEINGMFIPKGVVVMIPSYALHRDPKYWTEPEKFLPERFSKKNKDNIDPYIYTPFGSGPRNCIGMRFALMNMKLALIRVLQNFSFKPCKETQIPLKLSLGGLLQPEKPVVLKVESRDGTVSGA
# Cytochrome P450 2C9 = Cytochrome P450 2C9 (Homo sapiens, UniProt P11712)
# Chain of Cytochrome P450 2C9 (P11712 whole entry): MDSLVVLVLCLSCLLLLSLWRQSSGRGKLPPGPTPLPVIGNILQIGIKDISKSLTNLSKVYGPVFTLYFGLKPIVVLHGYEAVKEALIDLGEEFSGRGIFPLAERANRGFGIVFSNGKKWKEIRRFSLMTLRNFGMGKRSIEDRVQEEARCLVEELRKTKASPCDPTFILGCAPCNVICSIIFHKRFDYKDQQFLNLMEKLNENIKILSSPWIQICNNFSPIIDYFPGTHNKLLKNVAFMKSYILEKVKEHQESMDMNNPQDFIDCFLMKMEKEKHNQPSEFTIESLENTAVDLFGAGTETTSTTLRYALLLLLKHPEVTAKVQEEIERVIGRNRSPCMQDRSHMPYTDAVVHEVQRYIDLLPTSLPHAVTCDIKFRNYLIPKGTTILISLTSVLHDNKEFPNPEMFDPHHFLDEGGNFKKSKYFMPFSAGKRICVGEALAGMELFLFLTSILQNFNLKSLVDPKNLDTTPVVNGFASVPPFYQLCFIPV
# [15] = target: Intestinal-type alkaline phosphatase (Mus musculus, UniProt P24822); assay: PubChem AID 488874; format: functional
# Chain of Intestinal-type alkaline phosphatase (Mus musculus, UniProt P24822) (P24822 whole entry): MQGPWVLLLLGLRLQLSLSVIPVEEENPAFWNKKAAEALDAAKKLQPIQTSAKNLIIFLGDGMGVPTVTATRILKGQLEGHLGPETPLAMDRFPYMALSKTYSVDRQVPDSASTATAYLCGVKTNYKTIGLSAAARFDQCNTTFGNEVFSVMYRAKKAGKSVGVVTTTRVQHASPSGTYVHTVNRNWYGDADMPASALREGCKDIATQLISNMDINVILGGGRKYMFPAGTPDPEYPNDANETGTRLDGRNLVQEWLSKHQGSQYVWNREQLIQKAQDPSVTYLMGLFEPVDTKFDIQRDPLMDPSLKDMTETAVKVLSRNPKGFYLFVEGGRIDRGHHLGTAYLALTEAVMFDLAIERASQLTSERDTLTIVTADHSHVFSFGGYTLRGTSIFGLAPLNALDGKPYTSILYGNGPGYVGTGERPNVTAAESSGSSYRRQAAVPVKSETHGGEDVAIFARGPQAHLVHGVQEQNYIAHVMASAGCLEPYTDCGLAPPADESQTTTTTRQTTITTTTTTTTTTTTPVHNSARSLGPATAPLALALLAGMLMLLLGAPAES
# [16] = target: T5, Intestinal-type alkaline phosphatase (Homo sapiens, UniProt P09923); assay: human intestinal alkaline phosphatase activators, dose response, biochemical, luminescence, uHTS hits (AID 463120); format: functional
# T5 sequence (P09923 whole entry): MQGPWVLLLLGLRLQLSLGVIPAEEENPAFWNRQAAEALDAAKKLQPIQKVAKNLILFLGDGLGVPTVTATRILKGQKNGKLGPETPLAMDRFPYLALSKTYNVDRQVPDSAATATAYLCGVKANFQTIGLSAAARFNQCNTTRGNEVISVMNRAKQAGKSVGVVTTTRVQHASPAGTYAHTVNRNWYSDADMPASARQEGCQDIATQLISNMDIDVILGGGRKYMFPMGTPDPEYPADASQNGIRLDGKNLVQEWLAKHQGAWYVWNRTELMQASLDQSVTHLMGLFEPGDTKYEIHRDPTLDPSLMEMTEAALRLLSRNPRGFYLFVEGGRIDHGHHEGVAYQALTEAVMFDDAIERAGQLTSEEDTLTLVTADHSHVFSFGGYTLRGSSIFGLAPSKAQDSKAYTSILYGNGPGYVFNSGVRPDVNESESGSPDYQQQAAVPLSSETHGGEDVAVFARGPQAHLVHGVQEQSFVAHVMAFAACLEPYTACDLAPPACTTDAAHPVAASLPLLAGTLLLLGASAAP
# [17] = target: T5, Intestinal-type alkaline phosphatase; assay: activation of human intestinal alkaline phosphatase – biochemical, luminescent, uHTS hits, set 2, dose response (AID 488817); format: functional;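 note: potency of activators that raise enzyme activity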
# [18] = target: T6, Alkaline phosphatase, tissue-nonspecific isozyme (Homo sapiens, UniProt P05186); assay: activation of tissue-nonspecific alkaline phosphatase – biochemical, TNAP isozyme, human IAP uHTS hits, selectivity assay for human IAP activator project, dose response (AID 488886); format: functional;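 note: potency of compounds raising TNAP activity as a selectivity check on IAP activators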
# T6 sequence (P05186 whole entry): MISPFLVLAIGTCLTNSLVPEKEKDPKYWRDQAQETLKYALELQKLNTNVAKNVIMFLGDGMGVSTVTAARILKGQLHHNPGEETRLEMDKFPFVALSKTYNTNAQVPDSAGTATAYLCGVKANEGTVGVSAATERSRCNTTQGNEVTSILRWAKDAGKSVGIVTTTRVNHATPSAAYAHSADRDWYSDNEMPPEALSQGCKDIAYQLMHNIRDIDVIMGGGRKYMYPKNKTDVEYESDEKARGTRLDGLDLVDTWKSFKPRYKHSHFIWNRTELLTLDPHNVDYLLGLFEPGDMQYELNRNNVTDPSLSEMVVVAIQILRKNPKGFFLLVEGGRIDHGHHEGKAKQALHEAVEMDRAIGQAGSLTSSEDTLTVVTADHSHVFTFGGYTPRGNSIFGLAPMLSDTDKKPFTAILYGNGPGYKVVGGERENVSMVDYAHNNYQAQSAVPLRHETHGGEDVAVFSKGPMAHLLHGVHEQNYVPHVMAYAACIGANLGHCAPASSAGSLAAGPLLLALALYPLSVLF
# [19] = target: T7, Long-chain-fatty-acid--AMP ligase FadD28 (Mycobacterium tuberculosis, UniProt P9WQ59); assay: Fluorescence polarization aasay to screen for inhibitors that compete for the binding of FadD28 to a bisubstrate Measured in Biochemical System Using Plate Reader - 2147-01_Inhibitor_Dose_CherryPick_Activity.; format: functional, Mycobacterium tuberculosis H37Rv
# T7 sequence (P9WQ59 whole entry): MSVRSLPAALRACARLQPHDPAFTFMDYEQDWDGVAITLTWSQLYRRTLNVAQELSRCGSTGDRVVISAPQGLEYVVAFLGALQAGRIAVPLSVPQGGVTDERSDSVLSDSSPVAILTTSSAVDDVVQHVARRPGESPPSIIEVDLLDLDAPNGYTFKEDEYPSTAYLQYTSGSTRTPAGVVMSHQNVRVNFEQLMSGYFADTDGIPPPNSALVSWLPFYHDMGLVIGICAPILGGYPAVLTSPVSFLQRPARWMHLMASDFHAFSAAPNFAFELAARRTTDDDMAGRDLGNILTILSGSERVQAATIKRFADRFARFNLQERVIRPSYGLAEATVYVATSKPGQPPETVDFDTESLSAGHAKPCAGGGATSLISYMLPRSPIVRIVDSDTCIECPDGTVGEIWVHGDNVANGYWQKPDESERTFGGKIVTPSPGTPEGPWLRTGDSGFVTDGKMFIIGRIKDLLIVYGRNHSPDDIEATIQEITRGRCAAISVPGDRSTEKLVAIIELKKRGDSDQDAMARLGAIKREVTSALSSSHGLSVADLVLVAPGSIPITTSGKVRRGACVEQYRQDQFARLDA
smiles,measurement,setting,value
COCCNc1nc2c(-c3cccc(C(F)(F)F)c3)nnn2c2ccccc12,IC50,Bcl-2-related protein A1,> 20 µM (inactive)
same,IC50,[1],10.3 µM (active)
same,IC50,[2],> 20 µM (inactive)
O=C(c1ccccc1)C(CN1CCCC1)c1ccccc1 (configuration not stated),EC50,[3],> 160 µM (inactive)
same,EC50,[4],0.292 µM (active)
same,EC50,[5],2.82 µM (active)
same,EC50,[6],1.88 µM (active)
same,CC50,[7],9.86 µM (active)
same,CC50,[8],14.7 µM (active)
same,CC50,[9],9.26 µM (active)
same,AC50,[10],3.73 µM (active)
same,AC50,[11],5.33 µM (active)
same,IC50,cells,8.41 µM (active)
same,AC50,INS1,4.07 µM (active)
same,AC50,A-375,25.2 µM (active)
same,AC50,[12],10.7 µM (active)
same,AC50,[13],17.4 µM (active)
same,AC50,[14],6.34 µM (active)
same,AC50,Paired box protein Pax-8,4.88 µM (active)
Cc1cnc(CNc2cc(-c3ccccc3C(F)(F)F)ncn2)cn1,AC50,Cytochrome P450 2C19,39.8 µM (inconclusive)
same,AC50,Cytochrome P450 1A2,25.1 µM (inconclusive)
same,AC50,Cytochrome P450 3A4,inconclusive
same,AC50,Cytochrome P450 2C9,inconclusive
CN(C)S(=O)(=O)c1cccc(NC(=S)NNC(=O)c2cc3ccccc3cc2O)c1,IC50,[15],34.2 µM (active)
same,EC50,[16],8.74 µM (active)
same,EC50,[17],16.1 µM (active)
same,EC50,[18],12.5 µM (active)
same,AC50,[19],77.8 µM (active)
CC(C)(C)OC(=O)N1CCC(NC(=O)c2[nH]cnc2C(=O)Nc2ccon2)CC1,IC50,[15],47.2 µM (active)
same,EC50,[16],10.1 µM (active)
same,EC50,[17],13.3 µM (active)
same,EC50,[18],13.9 µM (active)
